Reference: US11548850B2, “Development of a cofilin inhibitor for the treatment of hemorrhagic brain injury-induced neuroinflammation” (The University of Toledo, priority 2019, dated 2023)
“Also recorded” adds a separate entry of the source.

Tests used:
[1] = test system: NO release from HMC3 cells; assay: Griess assay for NO release from LPS-challenged HMC3 cells; format: cell-based, human
Protocol: (§1) Cultured HMC3 cells were challenged with 0.1 μg/mL of LPS and treated with different concentrations of SZ-3 concurrently. At the end of the experiment cells were harvested for MTT by CellTiter-Glo Luminescent assay (FIG. 9A), Griess assay for NO release (FIG. 9B), and TNF-α by ELISA (FIG. 9C).
(§2) After hemorrhage, activated microglia release proinflammatory mediators such as cytokines, chemokines, and nitric oxide (NO) leading to secondary injury which may be worse than the initial insult and may result in severe neurological deficits and death. In order to test whether the synthesized compound will reduce or stop microglial activation and inflammation after hemorrhage, whether the compound poses toxicity to microglia was first assessed. Human microglial cell line (HMC3) was challenged or activated with lipopolysaccharide (LPS) ([…]) and treated with different concentrations of the SZ-3 (10 and 5 μM) concurrently. CellTiter-Glo luminescent assay was used for cell viability; Griess reagent assay was used for NO release and ELISA was used for TNF-α estimations.
Next, a NO release assay was performed to determine if SZ-3 can reduce the NO release. […] Next, whether the major inflammatory cytokine TNF-α is reduced with the SZ-3 treatment was evaluated. As a consequence of microglial activation, TNF-α levels are increased, and the same pattern was observed when cells were challenged with LPS. There was a significant increase in TNF-α after LPS challenge.
NO was indirectly assayed through the measurement of nitrite by mixing a sample of culture medium with an equal volume of Griess reagent (0.3% naphthylethylenediamine dihydrochloride, 3% sulfanilamide, 8% phosphoric acid) and reading at 540 nm.

HMC3 cells [2] = assay: Scratch wound assay (IncuCyte) of microglial migration and proliferation; format: cell-based, human; settings: LPS 200 ng/ml
Protocol: HMC3 cells were seeded onto a poly-D-lysine hydrobromidecoated-coated 96-well culture plate and placed overnight in a 37° C. IncuCyte S3. WoundMaker was used to simultaneously create wounds in all wells and then LPS (200 ng/ml) was added to wounded cells except control group. After 3 h cells were treated with DMSO (control) or SZ-3 (5 μM). The wound images were taken at 2 h intervals for 58 h. Data were processed and analyzed by using IncuCyte software.
In response to brain injury, microglia transform into an activated state and migrate to the damaged area. This migration leads to an accumulation of activated microglia around the injury site resulting in vicious cycle of microglial activation and further release of inflammatory cytokines. To elucidate whether SZ-3 can stop or reduce the migration of activated microglial cells towards the injury site, a scratch wound assay was performed. At different time intervals, wound confluence, relative wound, and wound width metrics were assayed to analyze the migration of the microglial cells.
HMC3 cells (30,000 cells/well) were seeded onto a poly-D-lysine hydrobromidecoated-coated 96-well culture plate (corning) and placed overnight in a 37° C. IncuCyte S3 (Essen BioScience) supplied with 5% CO2. WoundMaker (Essen BioScience) was used to simultaneously create wounds in all wells then washed twice with culture medium. LPS (200 ng/ml) was added to wounded cells except control group immediately after the wash. 3 h later cells were treated with DMSO (control) or SZ-3 (5 μM). The wound images were taken at 2 h intervals for 72 h. Data were processed and analyzed by using IncuCyte software.

cofilin [3] = assay: WB of cofilin in thrombin-challenged HMC3 cells; format: cell-based, human; settings: thrombin 100 U/ml
Protocol: (§3) FIG. 11: SZ-3 reduces inflammation through NF-κB mechanism. Cultured HMC3 cells were challenged with thrombin 100 U/ml and after 3 h were treated with different concentrations of SZ-3 (10 and 5 μM). Cells were harvested for WB analysis after 24 h.
(§4) WB was used to assay the expression levels of cofilin, phosphocofilin, and NF-κB. […] Without wishing to be bound by theory, the role of phosphocofilin is not fully understood, but it is believed that it is decreased in stress conditions and its restoration is beneficial.
(§5) HMC3 cells were cultured in DMEM/F12 medium supplemented with 5% horse serum (HS), 10% fetal bovine serum (FBS), and 1% penicillin/streptomycin. Cells were stimulated with 100 U/ml thrombin from bovine plasma (Sigma) and treated without (vehicle) or with different concentrations of SZ-3.
(§6) Cells were harvested and washed with ice-cold lysis buffer (250 mM sucrose, 1.5 mM MgCl2, 10 mM KCl, 20 mM HEPES 7.6 pH, 1 mM of dithiothreitol, 1 mM phenylmethylsulfonyl fluoride, 50 mM NaF, 10 mM sodium orthovanadate, 20 mM sodium pyrophosphate, and protease inhibitors) for 15 min then supplemented with 5% of Nonidet P-40 for 2 min. Cytosolic fraction was collected from the supernatant after centrifugation at 14,000 g for 10 min. Bradford reagent (Bio-Rad Laboratories) was used to determine the protein concentrations, and equal amounts of samples were loaded onto 10-15% SDS-polyacrylamide gels, separated by electrophoresis, and transferred to PVDF membranes. Membranes were blocked and incubated with primary antibodies; cofilin, phosphocofilin, and NF-kB (Cell Signaling Technology) at 4° C. overnight. Membranes were incubated for 1 h at room temperature with horseradish peroxidase-conjugated secondary antibody (1:5000; Jackson ImmunoResearch) after washing. Glyceraldehyde 3-phosphate dehydrogenase (GAPDH) or beta-actin were used as the loading control, and band intensity analyzed using Bio-Rad Chemi-Doc XRS Image Lab Software.

mice with hemorrhage = assay: Experimental hemorrhage in mice by collagenase injection into the striatum; format: in vivo
Protocol: Mice were subjected to experimental hemorrhage by injecting collagenase into the striatum. After 3 h of collagenase injection, mice were treated with two concentrations of SZ-3 (1 and 10 mg/kg, i.p.) followed by 12 hourly injections until day 3. Mice were evaluated for baseline rotarod and grip strength 24 h prior and after hemorrhage and then after every 24 hs for three days. N=12 per group. FIG. 12A depicts a timeline of the experiment, and photographs of the mice.
The top column is Sham, the second column is vehicle, the third column is SZ-3 (1 mg/kg), and the fourth column is SZ-3 (10 mg/kg).
Finally, it was desired to elucidate if treatment with SZ-3 can mitigate the hemorrhage induced behavioral deficits. Hemorrhage was induced in mice, and the mice were then treated with SZ-3. Mice were subjected to experimental hemorrhage by injecting collagenase into the mice striatum. Collagenase model simulates the hemorrhage by inducing vessel damage resulting in localized hematomas. This model is widely used in hemorrhagic stroke research.
Mice were treated with two concentrations of SZ-3 (1 and 10 mg/kg, i.p;) immediately after 3 h of hemorrhage and then after every 12 h for 3 days (FIG. 12A). […] Normally, the mice are substantially paralyzed a short time after the stroke.

HMC3 cells [4] = assay: Cell viability of LPS-challenged HMC3 cells (CellTiter-Glo Luminescent assay); format: cell-based; settings: LPS 0.1 μg/mL, SZ-3 5-10 μM concurrently
Protocol: as §1, §2
All types of cells used in these examples were assayed for viability and proliferation after 24-72 h using the MTT or CellTiter-Glo Luminescent assay Promega (Madison, Wis.). Cells after treatment were incubated with MTT reagent for 3 h in 5% CO2 at 37° C. […] Absorbance was read at 570 nm to quantify cell viability. […]

cofilin [5] = assay: WB analysis of cofilin expression in thrombin-challenged SHSY cells; format: cell-based, human; settings: thrombin 100 U/ml, SZ-3 5 μM after 3 h, WB after 24 h
Protocol: (§7) The synthesized SZ-3 compound was tested for neuroprotective properties in cell-based models using a neuroblastoma cell line (SHSY) and thrombin as a stressor. Thrombin was used as a cell death inducer in cell-based models for hemorrhagic brain injury. SHSY cells were challenged by 100 U/ml thrombin and after 3 hrs treated with different concentrations of synthesized compounds. […] Cell death is observed through fluorescence.
as §6, with “Membranes were blocked and incubated with primary antibodies; cofilin, phosphocofilin, and NF-kB (Cell Signaling Technology) at 4° C. overnight. Membranes were incubated for 1 h at room temperature with horseradish peroxidase-conjugated secondary antibody (1:5000; Jackson ImmunoResearch) after washing.” left out

HMC3 cells [6] = assay: Thrombin-induced cell death in HMC3 cells; format: cell-based, human; settings: thrombin 100 U/ml, SZ-3 10 μM
Protocol: as §3
(§8) All types of cells used in these examples were assayed for viability and proliferation after 24-72 h using the MTT or CellTiter-Glo Luminescent assay Promega (Madison, Wis.). Cells after treatment were incubated with MTT reagent for 3 h in 5% CO2 at 37° C. The medium was replaced with DMSO to dissolve formazan crystals. Absorbance was read at 570 nm to quantify cell viability. CellTiter-Glo reagents were used in some experiments by adding equal amounts of reagent to the amount of medium containing cells for a 96-well plate. Contents were mixed for 2 minutes then incubated the plate for 10 minutes at room temperature to stabilize luminescent signal.

[7] = Solubility of SZ-3 in the mouse study; format: physicochemical
phosphocofilin = assay: WB of phosphocofilin in thrombin-challenged HMC3 cells; format: cell-based, human; settings: thrombin 100 U/ml, SZ-3 10, 5 μM after 3 h, WB after 24 h
Protocol: as §3, §4, §5
(§9) Cells were harvested and washed with ice-cold lysis buffer (250 mM sucrose, 1.5 mM MgCl2, 10 mM KCl, 20 mM HEPES 7.6 pH, 1 mM of dithiothreitol, 1 mM phenylmethylsulfonyl fluoride, 50 mM NaF, 10 mM sodium orthovanadate, 20 mM sodium pyrophosphate, and protease inhibitors) for 15 min then supplemented with 5% of Nonidet P-40 for 2 min. […] Glyceraldehyde 3-phosphate dehydrogenase (GAPDH) or beta-actin were used as the loading control, and band intensity analyzed using Bio-Rad Chemi-Doc XRS Image Lab Software.

NF-κB = assay: WB of NF-κB in thrombin-challenged HMC3 cells; format: cell-based, human; settings: thrombin 100 U/ml, SZ-3 10, 5 μM after 3 h, WB after 24 h
Protocol: as §3, §4, §5, §9

SHSY cells [8] = assay: Toxicity of SZ-3 in cultured SHSY cells (MTT); format: cell-based; settings: different concentrations of SZ-3, 5-20 μM range
Protocol: as §7, §8

cofilin [9] = biological target: cofilin (Homo sapiens, UniProt P23528); assay: In vitro F-actin depolymerization assay; format: biochemical; set-up: purchased Cytoskeleton, Inc; settings: SZ-3 5 μM, cofilin 0.25 μM, 30 min, rabbit muscle actin, SiR-actin probe
Sequence of cofilin (Homo sapiens, UniProt P23528) (P23528 whole entry): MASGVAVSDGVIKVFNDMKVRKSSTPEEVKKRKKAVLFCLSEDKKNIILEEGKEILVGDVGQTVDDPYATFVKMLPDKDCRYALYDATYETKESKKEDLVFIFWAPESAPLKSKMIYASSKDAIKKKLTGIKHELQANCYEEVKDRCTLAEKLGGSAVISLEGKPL
Protocol: The inhibitory effect of SZ-3 was tested using an F-actin depolymerization assay. Rabbit muscle actin (Cytoskeleton, Inc.) was reconstituted with general actin and incubated on ice for 30 min to depolymerize any existing actin oligomers. Cofilin (Cytoskeleton, Inc.) at 0.25 μM and SZ-3 (5 μM) were added together to the corresponding vials and incubated for 30 min to ensure cofilin depolymerization and efficacy of the SZ-3. SiR-actin probe (Cytoskeleton, Inc.) was added at 50 nM and incubated for 1 h to visualize actin filaments. Finally, 5-10 μl of each group was added to a slide and imaged with fluorescent microscope at 652 nm.
Cofilin inhibition with SZ-3 was tested using an f-actin depolymerization high-throughput screening assay.
SZ-3 inhibitory effect on cofilin was tested using F-actin depolymerization assay. Briefly, rabbit muscle actin (Cytoskeleton, Inc.) was reconstituted with general actin buffer to 40 μM (stock) and incubated on ice for 30 min to depolymerize any existing actin oligomers. Next, actin stock solution was further diluted to a 1 μM working solution and then polymerized into filaments with the addition of 1/10 th the volume of actin polymerization buffer (Cytoskeleton, Inc.). The mix was incubated at room temperature for 1 h to ensure optimum polymerization. […]

TNF-α = TNF-α ELISA in LPS-challenged HMC3 cells; format: cell-based, human; settings: SZ-3 10 μM and 5 μM
Protocol: as §1
After hemorrhage, activated microglia release proinflammatory mediators such as cytokines, chemokines, and nitric oxide (NO) leading to secondary injury which may be worse than the initial insult and may result in severe neurological deficits and death. In order to test whether the synthesized compound will reduce or stop microglial activation and inflammation after hemorrhage, whether the compound poses toxicity to microglia was first assessed. […]
Next, a NO release assay was performed to determine if SZ-3 can reduce the NO release. […] Next, whether the major inflammatory cytokine TNF-α is reduced with the SZ-3 treatment was evaluated. […]
HMC3 cells (30,000 cells/well in a 96-well plate) were stimulated by LPS ([…]), then treated with DMSO or different concentrations of drug 3 h later. The supernatants were collected after 24 h, and the concentrations of TNF-α were measured using enzyme-linked immunosorbent assay (ELISA) according to the kit's instructions (R&D Systems, Inc.).

SHSY cells [10] = assay: Thrombin-induced cell death in SHSY cells (MTT); format: cell-based, human; settings: thrombin 100 U/ml
Protocol: as §7, §8

CC(C)(C)c1ccc(O)c(CN(Cc2cc(C(C)(C)C)ccc2O)C2CCC(NC(N)=O)CC2)c1 (centres unmarked) [SZ-3, 4-{bis[(5-tert-butyl-2-hydroxyphenyl)methyl]amino}cyclohexyl urea]
NO release ([1]; LPS 0.1 μg/mL, different concentrations of SZ-3): significantly reduced NO
NO release ([1]; LPS, SZ-3 5 μM, p<0.001): significantly reduced NO release
NO release ([1]; LPS, SZ-3 10 μM): significance was at p<0.01
distance between the migrating edges of the wound (wound width) (HMC3 cells [2]; SZ-3 5 μM after 3 h): in between
microglial migration and proliferation (HMC3 cells [2]; SZ-3 5 μM after 3 h): reduces the proliferation and migration of the microglial cells; also recorded: reduced microglial migration and proliferation
confluence of cells within the wound region (HMC3 cells [2]; SZ-3 5 μM after 3 h, first 24 h): less with SZ-3 treated cells relative to non-treated cells
cell density in the wound area relative to outside the wound area (HMC3 cells [2]; SZ-3 5 μM, after the 24 h of treatment): slow increase rate in cell density in the wound area
cofilin expression (cofilin [3]; SZ-3 5 μM (FIG. 11 legend)): reduced by treatment with 5 μM of SZ-3
cofilin level (cofilin [3]; SZ-3 10 μM): significant decrease in cofilin level was observed only in 10 μM
cofilin expression level (cofilin [3]; SZ-3 10, 5 μM after 3 h, WB after 24 h): significantly reduced
cell death after experimental ICH (mice with hemorrhage; FIG. 13, SZ-3 1 mg/kg and 10 mg/kg versus vehicle, fluorescence): barely any cell death; also recorded: reduces cell death after experimental ICH
motor function assessed by rotarod (mice with hemorrhage; SZ-3 1 and 10 mg/kg i.p. 3 h after hemorrhage then every 12 h for 3 days, day 2 and 3): significantly reversed
grip strength (mice with hemorrhage; SZ-3 1 and 10 mg/kg i.p., after hemorrhage): showed enhanced grip strength
lesions in the mice (mice with hemorrhage; mice treated with SZ-3): no lesions formed
grip of sham mice (mice with hemorrhage; sham mice, no induced hemorrhage): improved the grip of the mice even without hemorrhage
toxicity in LPS-challenged HMC3 cells (HMC3 cells [4]): No cell toxicity was observed
cofilin expression (cofilin [5]): significantly reduced cofilin expression
cell death induced by thrombin (HMC3 cells [6]): significantly restored cell death induced by thrombin
solubility [7]: no solubility issues
phosphocofilin expression level (phosphocofilin): reversed the expression levels
NF-κB expression level (NF-κB): significantly reduced
toxicity in SHSY cells (SHSY cells [8]): did not show any signs of toxicity; also recorded: No toxicity was observed
severing and depolymerizing activity of cofilin on F-actin (cofilin [9]): prevented the severing and depolymerizing activity of cofilin; also recorded: binds to cofilin
TNF-α levels (TNF-α): significantly reduced TNF-α levels; also recorded: significantly reduced NO and TNF-α release
cell death induced by thrombin, best concentration (SHSY cells [10]; SZ-3 10 μM): showing the best effect
cell death induced by thrombin (SHSY cells [10]; SZ-3 20, 10, 5 μM after 3 h, MTT after 24 h): significantly reversed the cell death; also recorded: significantly restored cell death induced by thrombin
